According to ChEMBL document CHEMBL1143500, “Novel heterocyclic thyromimetics” (Bioorg Med Chem Lett, 2005):

What follows are compounds tested against T1, Thyroid hormone receptor (Homo sapiens, UniProt P10827+P10828) (assay: (§1) Agonist activity towards thyroid hormone receptor expressed in human HepG2 cells).
T1 sequence (P10827 whole entry): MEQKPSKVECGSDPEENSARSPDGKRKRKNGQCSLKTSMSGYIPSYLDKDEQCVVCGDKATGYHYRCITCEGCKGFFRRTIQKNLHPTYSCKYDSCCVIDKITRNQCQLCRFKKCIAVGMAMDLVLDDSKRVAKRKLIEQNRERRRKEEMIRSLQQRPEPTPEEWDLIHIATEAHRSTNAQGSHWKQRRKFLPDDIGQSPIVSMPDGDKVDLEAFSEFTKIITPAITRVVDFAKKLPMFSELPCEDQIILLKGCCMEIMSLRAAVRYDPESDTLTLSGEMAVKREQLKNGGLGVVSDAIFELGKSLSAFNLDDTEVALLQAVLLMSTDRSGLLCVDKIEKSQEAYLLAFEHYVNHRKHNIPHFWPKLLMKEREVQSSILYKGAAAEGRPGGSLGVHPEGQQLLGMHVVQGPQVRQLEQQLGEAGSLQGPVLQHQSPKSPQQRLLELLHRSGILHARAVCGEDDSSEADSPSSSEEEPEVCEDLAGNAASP
T1 sequence (P10828 whole entry): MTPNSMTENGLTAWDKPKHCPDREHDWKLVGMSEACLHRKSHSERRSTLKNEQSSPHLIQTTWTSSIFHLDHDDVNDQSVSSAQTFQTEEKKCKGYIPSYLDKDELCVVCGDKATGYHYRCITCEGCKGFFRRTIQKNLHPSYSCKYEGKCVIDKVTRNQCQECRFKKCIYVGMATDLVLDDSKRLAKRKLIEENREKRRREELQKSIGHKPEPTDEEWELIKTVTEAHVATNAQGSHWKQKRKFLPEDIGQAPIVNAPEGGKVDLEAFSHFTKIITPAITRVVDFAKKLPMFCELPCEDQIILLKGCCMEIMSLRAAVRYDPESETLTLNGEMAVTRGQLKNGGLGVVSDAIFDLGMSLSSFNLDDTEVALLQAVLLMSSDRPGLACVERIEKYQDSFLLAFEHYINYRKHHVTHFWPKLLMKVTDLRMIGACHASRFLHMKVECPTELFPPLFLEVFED
Assay type: functional, cell-based

SMILES | EC50
CCOC(=O)C(=O)Nc1cc(C(F)(F)F)c(Oc2ccc3[nH]cc(C(C)C)c3c2)c(C(F)(F)F)c1 | 3 nM
CC(C)c1c[nH]c2ccc(Oc3c(C(F)(F)F)cc(/C=C/C(=O)O)cc3C(F)(F)F)cc12 | 3.2 nM
CCOC(=O)CC(=O)Nc1cc(C)c(Oc2ccc3[nH]cc(C(C)C)c3c2)c(Cl)c1 | 8 nM
CCOC(=O)C(=O)Nc1cc(C)c(Cc2ccc3[nH]cc(C(C)C)c3c2)c(C)c1 | 18 nM
CC(C)c1c[nH]c2ccc(Oc3c(C(F)(F)F)cc(CCC(=O)O)cc3C(F)(F)F)cc12 | 2.6 nM
CCOC(=O)C(=O)Nc1cc(C(F)(F)F)c(Oc2ccc3[nH]cc(Oc4ccc(F)cc4)c3c2)c(C(F)(F)F)c1 | 495 nM
CC(C)c1c[nH]c2ccc(Oc3c(C(F)(F)F)cc(CC(=O)O)cc3C(F)(F)F)cc12 | 0.5 nM
CCOC(=O)C(=O)Nc1cc(C(F)(F)F)c(Oc2ccc3[nH]cc(-c4ccc(F)cc4)c3c2)c(C(F)(F)F)c1 | 115 nM
CCCCCc1n[nH]c2ccc(Oc3c(C)cc(NC(=O)C(=O)OCC)cc3C)cc12 | 8 nM
CCOC(=O)C(=O)Nc1cc(C(F)(F)F)c(Oc2ccc3[nH]cc(Cc4ccc(F)cc4)c3c2)c(C(F)(F)F)c1 | 11 nM

Other lines, results leading:

EC50 | SMILES
4 nM | CCOC(=O)C(=O)Nc1cc(C)c(Oc2ccc3[nH]cc(C(C)C)c3c2)c(C)c1
7.8 nM | C=Cc1cc(NC(=O)C(=O)OCC)cc(C=C)c1Oc1ccc2[nH]cc(C(C)C)c2c1
72 nM | CCOC(=O)C(=O)Nc1cc(C)c(Oc2ccc3[nH]ccc3c2)c(C)c1
4 nM | CCOC(=O)C(=O)Nc1cc(C)c(Oc2ccc3[nH]cc(C(C)C)c3c2)c(Cl)c1
23 nM | CCOC(=O)C(=O)Nc1cc(C(F)(F)F)c(Oc2ccc3[nH]ccc3c2)c(C(F)(F)F)c1
4 nM | COC(=O)C(=O)Nc1cc(Cl)c(Oc2ccc3[nH]cc(C(C)C)c3c2)c(Cl)c1
15 nM | CCOC(=O)C(=O)Nc1cc(Cl)c(Oc2ccc3[nH]ccc3c2)c(Cl)c1
15 nM | CCOC(=O)C(=O)Nc1cc(C)c(Oc2ccc3[nH]cc(C)c3c2)c(C)c1
1.2 nM | CCOC(=O)C(=O)Nc1cc(Br)c(Oc2ccc3[nH]cc(C(C)C)c3c2)c(Br)c1

The compounds below were run against T2, Thyroid hormone receptor (Homo sapiens) (UniProt P10827+P10828) (assay: Selectivity for THRalpha and THRbeta, ratio of EC50).
Assay type: protein-complex assay

Selectivity | SMILES
10 | CCOC(=O)C(=O)Nc1cc(C(F)(F)F)c(Oc2ccc3[nH]cc(C(C)C)c3c2)c(C(F)(F)F)c1
10 | CCOC(=O)C(=O)Nc1cc(C)c(Oc2ccc3[nH]cc(C(C)C)c3c2)c(C)c1
10 | CCOC(=O)CC(=O)Nc1cc(C)c(Oc2ccc3[nH]cc(C(C)C)c3c2)c(Cl)c1

Each compound was assayed against T2, Thyroid hormone receptor (Homo sapiens) (assay: as §1).
Assay type: functional, cell-based

Concentration | SMILES
24 nM | Cc1cc(OCC(=O)O)cc(C)c1Oc1ccc2[nH]cc(C(C)C)c2c1
